From patent publication US12653899B2, “Multi-targeted, tunable, sustained delivery of payloads to charged avascular tissues” (Massachusetts Institute of Technology, priority 2019, dated 2026)

Test system: human ankle cartilage explants
Assay: Aggrecan/sGAG biosynthesis rate (35S-sulfate incorporation) in human ankle cartilage explants
Format: cell-based
Details: for biosynthesis rate of explants compared to the untreated control: single 39.2 nM dose (equivalent to 300 ng/ml free IGF-1), FIGS. 19A-19B; for sGAG biosynthesis rate: single 500 nM, 1 μM and 2 μM doses, Day 0 to Day 3, both ankle and knee cartilage; for elevated biosynthesis rate after single dose, up to Day 7 / elevated biosynthesis rate after single dose, up to Day 15: single dose not replenished during media changes, FIG. 12 (ankle and knee)
Experimental: (§1) Cartilage was harvested from both ankles of a donor (Collins Grade 0). Cartilage explants were equilibrated in culture media for 3 days after harvest. […] These were cut down to 1 mm thickness and allowed to equilibrate for a further 2.5 days before experiments were set up. A dose response experiment and an uptake experiment were set up in parallel.
Subsets of the experiment were terminated at 3 days and 7 days from the start of the experiment. Media changes were performed every 2 to 3 days. 3 doses of free +9 GFP were included as additional controls, which tests whether high doses of the drug delivery carrier has adverse effects on aggrecan biosynthesis rate.
For the 3-day termination experiment, chondrocyte biosynthesis rate (primarily aggrecan synthesis) was measured between days 0 and 3 of the experiment using a 35S-sulfate radiolabel. For the 7-day experiment, this measurement was done between days 5 and 7. Statistics: 1-way ANOVA with post-hoc Tukey's HSD test.
as §1, with “the ankle” for “both ankles”, “1).” for “0).”, “2” for “3”, “A 7-day” for “A”, “was” for “and an uptake experiment were”, “up.” for “up in parallel.”
Chondrocyte biosynthesis rate (primarily aggrecan synthesis) was measured between days 5 and 7 of the experiment using a 35S-sulfate radiolabel. Statistics: 1-way ANOVA with post-hoc Tukey's HSD test.
Cartilage explants that were equilibrated in culture medium post-harvest were transferred to ultra-low attachment cell culture plates (Corning) for dose response experiments. All experiments were carried out in low glucose, serum free medium (same composition as equilibration medium). Previous studies studying the effects of IGF-1 on cartilage explants have used doses ranging from 10 ng/ml to 300 ng/ml. Based on these, 300 ng/ml (equivalent to 39.2 nM) of free recombinant human IGF-1 (PeproTech, Rocky Hill, NJ) was used as the positive control.
Since each fusion protein had one IGF-1 domain, equivalent doses (39.2 nM) of these were tested. In addition to this, 500 nM, 1 μM and 2 μM doses of fusion proteins were also tested. In all cases, only a single dose of the fusion proteins was added at the start of the experiment, and media changes were carried out without fusion proteins once every 2 to 3 days thereafter. In contrast, continuous doses of free IGF-1 were used for the positive control. An untreated control group was also included in the experiments. Experiments were terminated at 3-day, 7-day and 15-day time points. Outcome measures included the biosynthesis rate of sulfated glycosaminoglycans (sGAG), explant metabolic rate, sGAG loss to the culture medium and the explant sGAG content at the end of the experiment.
The metabolic rate of cartilage explants was measured using the Alamar Blue assay (ThermoFisher). Cartilage explants were incubated for 3 hours in a 1× solution of Alamar Blue dissolved in culture medium. At the end of the incubation period, the absorbance of the medium at 570 nm and 600 nm was measured using a microplate reader (Synergy H1 Hybrid Multi-Mode Microplate Reader, BioTek). These readings were used to calculate the percentage reduction of Alamar Blue, which is directly proportional to the explant metabolic rate. These values were first normalized by individual explant weights. Following this, the weight-normalized readings for the treatment groups were normalized by the weight-normalized mean value for the untreated controls. To measure the chondrocyte biosynthesis rate of sulfated glycosaminoglycans (sGAGs), cartilage explants were cultured in the presence of 10 μCi/mL 35S-sulfate radiolabel during the final two days of each experiment. […]

Substance	aggrecan biosynthesis rate compared to the untreated control (Experiment 3A, ankle, all three single doses (500 nM, 1 μM, 2 μM), 7-day time point)	biosynthesis rate of explants compared to the untreated control	sGAG biosynthesis rate	elevated biosynthesis rate after single dose, up to Day 7	elevated biosynthesis rate after single dose, up to Day 15	aggrecan biosynthesis rate compared to the untreated control (Experiment 3A, ankle, donor, single 500 nM dose, 3-day time point)	aggrecan biosynthesis rate compared to the untreated control (Experiment 3A, ankle, single 500 nM dose, 7-day time point)	aggrecan biosynthesis rate compared to the untreated control (Experiment 3A, ankle, single 1 μM dose, 7-day time point)	aggrecan biosynthesis rate compared to the untreated control (Experiment 3A, ankle, single 2 μM dose, 3-day time point)	aggrecan biosynthesis rate compared to the untreated control (Experiment 4, ankle, donor, single 500 nM dose, days 5-7)	aggrecan biosynthesis rate compared to the untreated control (Experiment 4, ankle, donor, single 1 μM dose, days 5-7)	aggrecan biosynthesis rate compared to the untreated control (Experiment 3A, ankle, continuous 40 nM free IGF-1, 3-day time point)	aggrecan biosynthesis rate compared to the untreated control (Experiment 3A, ankle, continuous 40 nM free IGF-1, 7-day time point)	aggrecan biosynthesis rate compared to the untreated control (Experiment 4, ankle, continuous 40 nM free IGF-1, days 5-7)	sulfate incorporation rate compared to the untreated control (continuous 39.2 nM free IGF-1, FIG. 19A)
(+9GFP)-(EAAAK)3-(IGF-1): fusion protein of +9 GFP and human IGF-1 with rigid (EAAAK)3 linker, SEQ ID NO: 8	statistically significantly higher	did not increase	significant increase	sustained up to Day 7	could not maintain										
(+9GFP)-(GGGGS)4-(IGF-1): fusion protein of +9 GFP and human IGF-1 with flexible (GGGGS)4 linker, SEQ ID NO: 7		did not increase	significant increase	sustained up to Day 7	could not maintain	statistically significantly higher	statistically significantly higher	statistically significantly higher	statistically significantly higher	statistically significantly higher	statistically significantly higher				
IGF-1: free recombinant human IGF-1 (PeproTech), pro-anabolic growth factor used as the positive control												statistically significantly higher	statistically significantly higher	statistically significantly higher	significantly increased
